Measurements taken from US20130059879A1, “Small Molecule Inhibitors of PFKFB3 and Glycolytic Flux and Their Methods of Use as Anti-Cancer Therapeutics” (UNIVERSITY OF LOUISVILLE RESEARCH FOUNDATION, INC., priority 2010, published 2013).
Values belong to the molecule of their own block, whether it stands above or below them.

Columns and labels:
[1] = Cell permeability in Caco2 monolayers; format: in vitro ADME; settings: human, Caco-2, Caco2 cells, pH 7.4
Description: (§1) The determination of the permeability in Caco2 or MDR1-MDCK cells is widely used when screening compounds to assess cell permeability, intestinal drug transport and predict absorption rates and to ascertain if a compound might be a Pgp substrate and have cross the blood brain barrier. […] Comparison of the apical to basal (A-B) and basal to apical (B-A) values show if a compound is actively effluxed out the cells and if it is a Pgp substrate. […] Briefly, cell permeability and transport mechanisms in Caco-2 and MDR1-MDCK monolayers experiments were performed in triplicate in the apical-to-basolateral and basolateral-to-apical direction using Transwell wells containing either Caco-2 or MDR1-MDCK monolayers. A modified Hanks buffer pH 7.4 was used in both reservoir and receiver wells with the addition of 1% BSA in the receiver side. Confluent monolayers were used and their integrity was verified using reference compounds (Atenolol as a low permeability reference compound and Propanolol as a high permeability reference compound). A sample in the basolateral and apical sides was taken after 2 hours and the concentration measured by LC/MS-MS.

[2] = system: K562; assay: Cell proliferation, MTT assay, 72 hours; format: cell-based; settings: Homo sapiens
Method: (§2) The ability of the compounds described herein to kill or inhibit the proliferation of cancer cells was measured using either the MTT assay, or the Alamar Blue assay, or the Cell Titer Glow® assay using 48 or 72 hours exposure. […] The procedures are briefly described below. Cells of the desired tumor cell line were plated at 2×10^5 cells/ml in 96 well plates. Twice the indicated concentrations of the compounds of the invention were added to cells the following day in an equal volume of media. 72 hours later, cells were lysed and subjected to ATP determination using the CellTiter Glo-Luminescent Cell Viability Assay kit (Promega, Madison, Wis.). Experiments were done in triplicate. When using the MTT assay or the Alamar blue assay, the experimental conditions are essentially similar; at the end of the incubation period, 20 microliters of the MTT solution is added per well and the samples are incubated for an additional four hours, rinsed, and the absorbance at 570 nm measured. […] Table 2 lists the IC50 values for the compounds of the invention in several cell lines including Jurkat, Calu-6, NCI-H82, U937, HCT-116, and MDA-MB-231 cancer cell lines.

[3] = system: Hela; assay: Cell proliferation, MTT assay, 72 hours; format: cell-based; settings: Homo sapiens
Method: as §2

[4] = system: NCI-H82; assay: Cell proliferation, MTT assay, 72 hours; format: cell-based; settings: Homo sapiens
Method: as §2

[5] = system: U937; assay: Cell proliferation, MTT assay, 72 hours; format: cell-based; settings: Homo sapiens, U-937
Method: as §2

[6] = system: Jurkat; assay: Cell proliferation, MTT assay, 72 hours; format: cell-based; settings: Homo sapiens
Method: as §2

[7] = system: HCT-116; assay: Cell proliferation, MTT assay, 72 hours; format: cell-based; settings: Homo sapiens, HCT-116, MTT assay
Method: as §2

[8] = system: HT-29; assay: Cell proliferation, MTT assay, 72 hours; format: cell-based; settings: Homo sapiens, HT-29, MTT assay
Method: as §2

[9] = system: DU145; assay: Cell proliferation, MTT assay, 72 hours; format: cell-based; settings: Homo sapiens, DU-145
Method: as §2

[10] = system: Hep G2; assay: Cell proliferation, MTT assay, 72 hours; format: cell-based; settings: Homo sapiens, HepG2
Method: as §2

[11] = system: MDA-MB-231; assay: Cell proliferation, MTT assay, 72 hours; format: cell-based; settings: Homo sapiens, MDA-MB-231, MTT assay
Method: as §2

[12] = system: PC3; assay: Cell proliferation, MTT assay, 72 hours; format: cell-based; settings: Homo sapiens, PC-3
Method: as §2

[13] = system: H209; assay: Cell proliferation, MTT assay, 72 hours; format: cell-based; settings: Homo sapiens, NCI-H209
Method: as §2

[14] = system: Calu-6; assay: Cell proliferation, MTT assay, 72 hours; format: cell-based; settings: Homo sapiens, Calu-6, MTT assay
Method: as §2

[15] = Pharmacokinetics in rats; format: in vivo; settings: male Sprague Dawley rats
Method: (§3) The pharmacokinetic parameters for several compounds were determined in mice following IV (intravenous), IP (intraperitoneal), or PO (per os) administration, as well as in rats and dogs. A typical study design includes six Balbc male mice 7 to 8 weeks old. For instance, a dose of 10 mg/kg was administered IV using a 5% DMS0/90% Captisol (20% in water) solution or other pharmaceutically acceptable parenteral and oral formulations. Blood samples were collected at different intervals. Plasma samples were extracted and analyzed using an LC-MS/MS method. Similar protocols were used for the rats (Sprague Dawley rats) or dogs (beagles) PK studies; in the case of dogs PK studies, the number of animals per group was three.
(§4) PFK-065 was dosed at 10 mg/kg in male Balbc mice; PFK-095 was dosed at 10 mg/kg in male Sprague Dawley rats; and PFK-112 dosed at 6 mg/kg in male beagle dogs.

[16] = Pharmacokinetics in dogs; format: in vivo; settings: male beagle dogs
Method: as §3, §4

[17] = Cell permeability in MDR1-MDCK monolayers; format: in vitro ADME; settings: dog, MDR1-MDCK cells, pH 7.4
Description: as §1

Papp A→B at 2 h ([1]; apical to basal): 16.2 ×10⁻⁶ cm/s
Papp B→A at 2 h ([1]; basal to apical): 8.9 ×10⁻⁶ cm/s
IC50 [2]: 210 nM
IC50 [3]: 9100 nM
IC50 [4]: 180 nM
IC50 [5]: 50 nM
IC50 [6]: 4650 nM
IC50 [7]: 510 nM
IC50 [8]: 450 nM
IC50 [9]: 940 nM
IC50 [11]: 24900 nM
IC50 [12]: 950 nM
IC50 [13]: 190 nM
IC50 [14]: 140 nM
Cmax ([15]; IV 10 mg/kg): 16932 ng/mL
T1/2b ([15]; IV 10 mg/kg): 5.5 h
Vd ([15]; IV 10 mg/kg): 2.5 L/kg
% F (from PO group) ([15]; oral bioavailability, PO 10 mg/kg): 38%
AUC(0-inf) ([15]; rat, plasma, IV 10 mg/kg): 1290 ng·h/mL
SMILES: O=C(c1ccncc1)c1cc2c(ccc3ccccc32)[nH]1 [ACT-PFK-095, (3H-Benzo[e]indol-2-yl)-pyridin-4-yl-methanone]
IC50 [10]: 5500 nM

T1/2b ([16]; IV 6 mg/kg): 5.8 h
AUC(0-inf) ([16]; dog, plasma, IV 6 mg/kg): 5070 ng·h/mL
Cmax ([16]; dog, plasma, IV 6 mg/kg): 5060 ng/mL
Vd ([16]; dog, plasma, IV 6 mg/kg): 1.8 L/kg
% F (from PO group) ([16]; oral bioavailability, PO 24 mg/kg vs IV 6 mg/kg): 95%
Papp A→B at 2 h ([17]; apical to basal): 7.8 ×10⁻⁶ cm/s
Papp B→A at 2 h ([17]; basal to apical): 17.3 ×10⁻⁶ cm/s
SMILES: Nc1ccc(C(=O)c2cc3c(ccc4ccccc43)[nH]2)cc1 [ACT-PFK-112, (4-Amino-phenyl)-(3H-benzo[e]indol-2-yl)-methanone]
